According to patent US5126258A (priority 1988, dated 1992):
pKi: −log10 of the molar value. “Also recorded” adds a separate entry of the source.

How the values were obtained:
[1] = Chemical stability
[2] = test system: monoclonal antibody P3 6D4; assay: Ester hydrolysis by monoclonal antibody P3 6D4, HPLC; format: biochemical, mouse; conditions: pH 8.0
Protocol: FIG. 3 illustrates the rate of hydrolysis of a carboxylic ester (Compound 7) determined by HPLC under the conditions described in Table 1 (50 mM phosphate buffer at pH 8.0 and 23 degrees C). ( ) Uncatalyzed (background)rate of hydrolysis. (.quadrature.) Effect of 0.5 micromolar non-specific monoclonal IgG. ( ) 0.1 Micromolar anti-Compound 4 monoclonal antibody from hybridoma P3 6D4. The superimposed curve represents a theoretical exponential decay which fits the data points.
In particular, an exemplary monoclonal receptor was produced by the standard hybridoma technology of Kohler et al., Nature, 256, 495 (1975). Specifically, female 129G1X^+ mice were immunized by intraperitoneal injection with an inoculum of 100 micrograms of conjugate (e.g., Compound 4i bound to KLH) in 300 microliters of a 1:1 mixture of phosphate buffered saline (PBS) pH 7.4 and complete Freund's adjuvant. Two weeks later, the mice were again injected in a like manner with 50 micrograms of the foregoing conjugate in 300 microliters of a 1:1 mixture of PBS (pH 7.4) and 10 mg/ml alum. After an additional eight weeks, the mice were immunized intravenously with 50 micrograms of the conjugate in 200 microliters of PBS (pH 7.4). The spleens were removed from the mice 4 days later, and the spleen cells were fused to myeloma cells.
(§1) The lack of spectroscopic distinction between such esters and their hydrolysis products recommended a chromatographic analysis of the process. Referring to FIG. 3, a mixture of Compound 7 (5 uM) and the monoclonal antibody from hybridoma P3 6D4 (0.1 uM) in phosphate buffer (50 mM, pH 8.0) was analyzed over time by high performance liquid chromatography (HPLC). The accelerated hydrolysis of the ester was apparent from the decrease of its peak and the concurrent increase in two new peaks that correspond with the expected products. Under these conditions, the ester is completely consumed in 60-80 minutes during which time the background rate accounts for about 12 to 16 percent hydrolysis. The chromatographic profile is the same as that produced by treatment with hog liver esterase.
(§2) *Hydrolysis of carboxylic esters by monoclonal antibody (from hybridoma P
(§3) 6D4) and by hog liver esterase (Sigma Chemical Co., St. Louis, MO, EC
(§4) 3.1.1.1) determined by HPLC on an analytical RPC18 column (Vydac 218TP54)
(§5) with isocratic elution [acetonitrile: water plus 0.1 percent
(§6) trifluoroacetic acid; (35:65)] at a flow rate of 1.0 ml/min and the
(§7) detector set at 245 nm. The initial substrate concentration was 5
(§8) micromolar and that the internal standard (acetophenone) was 10 microm
(§9) olar in 50 mM phosphate buffer at pH 8.0. The retention times (minutes)
(§10) were as follows: acetophenone, 5.0; Compound 7, 8.3; Compound 8, 6.7;
(§11) Compound 9, 4.1; Compound 10, 11.1 (40 percent acetonitrile elution);
(§12) Compound 11, 8.2. The antibody concentration was 15 micrograms/ml (0.1
(§13) micromolar) and that of esterase was 5.5 micrograms/ml. The reaction
(§14) mixtures were kept at 25 degrees C. and aliquots were analyzed at
(§15) intervals of 2 to 20 minutes. Three or more determinations were used to
(§16) plot a curve from which the halflife of the reaction is estimated (see

[3] = test system: hog liver esterase; format: biochemical; conditions: pig, 5 µM, pH 8
Protocol: as §1, §2, §3, §4, §5, §6, §7, §8, §9, §10, §11, §12, §13, §14, §15, §16

[4] = Spontaneous (uncatalyzed, background) hydrolysis; format: physicochemical; conditions: spectrophotometric at 245 nm, initial rates at five ester concentrations; figure = k × 10^5
Protocol: The practical range of pH for the assay is limited by the rapid spontaneous rate of hydrolysis of an ester Compound 5 above pH 8.0. Initially, the ester was used at a concentration that was about four-fold greater than that of the protein, and the mixture was incubated at pH 7.2 for 10 minutes. Any change in fluorescence above background was noted.
as §1
^c The rate constants were determined spectrophotometrically (at 245
nm) by measuring initial rates at five concentrations of ester.
^1 Preliminary initial hydrolyses shown as the percentage of admixed
reactant ligand consumed for catalyzed and spontaneous hydrolyses. "--" =
No hydrolysis observed. "NT" = Not tried. All reactions were carried out
at pH 8.0 in a 50 mM phosphate buffer unless otherwise noted. Hydrolytic
percentages were determined by HPLC using a Hitachi model 655A12 liquid
chromatograph with a C18 Vydac 201TP54 column, except as noted below.
Mixtures of acetonitrile a nd water containing 0.1 percent trichloroaceti
acid [28:72-50:50 (v/v)] were used as elutant. Hydrolyses of Compounds 5
and 20 were assayed using fluorescence data.
^5 Spontaneous hydrolytic percentages for the time period indicated.
(§17) Reaction kinetics were studied using three reactant ligands as substrates for monoclonal receptors 37G2 and 22F5. Data from initial rates were consistent with Michaelis-Menten reaction mechanism for a usual enzyme-substrate system. Initial rates were followed using at 271 nm using a U.V.-visible spectorphotometer for Compound 17, and a fluorescence spectrometer for Compounds 5 and 20, using an excitation wavelength of 355 nm and an emission wavelength of 455 nm for both compounds.

[5] = test system: P2 57G4; assay: Catalytic hydrolysis by receptor P2 57G4; format: biochemical, mouse
Protocol: (§18) Two further catalytic monoclonal receptors were similarly prepared by another fusion using Compound 2i linked to an antigenic carrier as immunogen. Those two catalytic receptor molecules and their hybridomas were designated "P2 50D8" and "P2 57G4".
(§19) In one study, twenty-eight monoclonal anti-hapten antibodies to phosphonate 2i from two separate fusion experiments were assayed. […] Antibodies to Compound 4i as hapten were assayed in the same manner. Twelve gamma-globulins were screened as described above. Compound 5 is homologous only in the acyl portion of this larger hapten; however, all but three of these cross-reacted with smaller phosphonate 2 in an ELISA assay as described herein. For two of these there was observed a fluorescence change, occurring in the first 5 minutes of incubation, which corresponds to about 50 percent of that for complete hydrolysis. The background rate of hydrolysis was reestablished after this initial reaction leveled off.

[6] = test system: P2 50D8; assay: Catalytic hydrolysis by receptor P2 50D8; format: biochemical, mouse
Protocol: as §18, §19

[7] = test system: monoclonal receptor P3 6D4; assay: Stoichiometric transacylation reaction of monoclonal receptor P3 6D4 with coumarin ester Compound 5 (fluorescence) and its inhibition/inactivation; format: biochemical, mouse
Protocol: A Perkin-Elmer LS-5 fluorescence spectrometer was operated at a fixed wavelength, using 355 nanometers (nm) for excitation and measuring the emission at 455 nm. A stock solution of the coumarin ester 5 was prepared in dioxane and was diluted to the desired concentrations in Tris-HCl (50 mM, pH 7) or sodium phosphate (50 mM, pH 4-9).
Reactions were run at 23 degrees C and were initiated by the addition of an aliquot of antibody solution (1 mg/ml) to substrate solutions to provide a final protein concentration of 100 nM. Final fluorescence values were determined by hydrolysis of the substrate with pig liver esterase. The observed reaction rate was corrected for spontaneous hydrolysis. Reaction kinetics were studied by measuring initial rates under pseudo-first order conditions. Active protein concentration was extrapolated from fluorescence values at the end of the reaction. The kinetic parameters were obtained by fitting the data to a hyperbolic curve and from double reciprocal plots. Inhibition constants were determined from the Lineweaver-Burk plot data with at least five inhibitor concentrations. All the data were studied by a least squares analysis.
Antibody preparations were inactivated without introducing fluorescent products by the addition of the activated ester (Compound 8) in dioxane to a solution of the IgG (5 mg/ml) in Tris-HCl (50 mM, pH 6.5) at a ratio of 5 moles of the ester (Compound 8) per mole IgG.
Protein modification was performed in an analogous manner, by the addition of a dioxane solution of the reagent at a known concentration to the antibody. The solution was incubated for 30 minutes before filtration through Sephadex G-25. The activity remaining was compared to control samples. Aliquots of IgG (5 mg/ml) inactivated with the ester (Compound 8) were diluted with four volumes of phosphate buffer (50 mM, pH 4-9, at intervals of 1 pH unit). Any pH change was recorded, and the sample was stored at 4 degrees C for 24 hours.
Initially, the ester was used at a concentration that was about four-fold greater than that of the protein, and the mixture was incubated at pH 7.2 for 10 minutes. Any change in fluorescence above background was noted.
The termination of the reaction is noted by the return of the rate of fluorescence increase to the background level.

[8] = molecular target: Monoclonal Receptor 22F5; assay: Kinetics of hydrolysis by receptor 22F5; format: biochemical, mouse; conditions: figure = Ki × 10^7
Source text: as §17
(§20) Lineweaver-Burke plots for the catalyzed hydrolysis of Compounds 17, 5 and 20 obtained in the presence and absence of Compound 12i as inhibitor were prepared as discussed for FIG. 4. In particular, Compound 17 was present at concentrations of 1-16 uM with inhibitor concentrations of 100 and 300 nanomolar (nM). Compound 5 was present at concentrations of 1-10 uM with inhibitor concentrations of 100 and 200 nM. Compound 20 was present at concentrations of 2-20 uM with inhibitor concentrations of 25 and 100 nM.
*Fluorescence assays using Compounds 20 and 5 were carried out in a
PerkinElmer fluorescence spectrophotometer (moded LS5; Oakbrook, IL) usin
200 nanomolar receptor (based on a molecular weight of 150,000 daltons) i
(§21) 50 mM phosphate buffer at a pH value of 8.0. The reactant ligand was
(§22) dissolved in dioxane and admixed in the amounts discussed above. Two
(§23) milliliters of reaction solution were utilized as was a dioxane
concentration of 2 percent by volume. […]

[9] = molecular target: Monoclonal Receptor 37G2; assay: Kinetics of hydrolysis by receptor 37G2; format: biochemical, mouse; conditions: inhibitor Compound 12i (100 and 300 nM), substrate Compound 17; figure = Ki × 10^7
Source text: as §17
as §20, with “100 nM. […]” for “100 nM.”
as §21, §22, §23
concentration of 2 percent by volume. Assays with Compound 17 as reac tan
ligand utilized 500 nanomolar receptor (based on a molecular weight of
150,000 daltons) in the above buffer, using the reactant ligand dissolved
in dioxane and a total dioxane concentration of 2 percent by volume.

SMILES	accelerated hydrolysis by P3 6D4 (substrate acceptance) [2]	t1/2 Esterase [3] [min]	kuncat [4] [s⁻¹]	catalytic hydrolysis by P2 57G4 [5]	catalytic hydrolysis by P2 50D8 [6]	also measured
COC(=O)c1cccc(C(=O)NCc2cc(NC(=O)CCCCC(=O)ON3C(=O)CCC3=O)ccc2OP(=O)(O)Cc2ccc(NC(=O)C(F)(F)F)cc2)n1 [Compound 4i]						hydrolytic stability (NHS group) ([1]; store at zero degrees C in a dessicator): prone to hydrolysis
CC(=O)Nc1ccc(CC(=O)Oc2ccc(NC(C)=O)cc2)cc1 [Compound 9]	not accepted as substrates	4	25000	capable of catalytically hydrolyzing	capable of catalytically hydrolyzing	
O=C(Cc1ccc(NC(=O)C(F)(F)F)cc1)Oc1ccccc1 [Compound 10]	no effect on the hydrolytic rate; also recorded: not catalyzed	2				stoichiometric antibody reaction (release of alcohol) [7]: Neither is the stoichiometric reaction apparent
CC(=O)Nc1ccc(CC(=O)Oc2ccc(NC(=O)C(F)(F)F)cc2)cc1 [Compound 11]	not manifested by the accelerated hydrolysis	5	610000	capable of catalytically hydrolyzing	capable of catalytically hydrolyzing	
Cc1ccc2cccc(NP(=O)(O)Cc3ccc(NC(=O)C(F)(F)F)cc3)c2n1 [Compound 12i]						pKi ([8]; inhibitor Compound 12i (25 and 100 nM), substrate Compound 20): 7.15; pKi ([8]; inhibitor Compound 12i (100 and 200 nM), substrate Compound 5): 6.96; stability ([1]; pH 3.5-7.3, room temperature): at least 11 days; pKi [9]: 6.85
Cc1ccc2cccc(NP(=O)(O)Cc3ccc(NC(=O)CCCC(=O)ON4C(=O)CCC4=O)cc3)c2n1 [Compound 13]						decomposition ([1]; pH 3.5 and 6.2): No signs of decomposition; stability at zero degrees C ([1]; zero degrees C, over 5 days): stable
